Data as given in patent publication US12714706B2, “Methods of treating small cell lung cancer with lurbinectedin formulations” (PHARMA MAR, S.A., priority 2019, dated 2026).
Values joined by “and” are separate entries in the source; they are usually repeats but may differ in a detail not shown here. Identical values can stand only once. Like-named read-outs stand apart in the source and are kept apart here.

Experiments:
[1] = Electrostatic charge measurements with a Faraday cage; format: physicochemical; conditions: dry nitrogen, 95% confidence
Procedure: This technique consists in placing the sample to be measured (q) in the interior of the inner sphere (a) and measuring the difference of potential induced between sphere (a) and another conductor of reference, sphere (b). The external sphere (c) is grounded in order to shield the system.
Measurements were carried out under controlled atmosphere of dry nitrogen in order to avoid the effect of ambient humidity on the electrostatic charge of the samples. Samples were introduced in glass capsules using non-conductor instrumental to avoid loses of electrostatic charge. The capsules loaded with the samples were introduced in the Faraday cage through a grounded conductor tube to avoid parasitic static charges in the glass capsule. The entry and removal of the capsules was done with a computer-controlled servo engine, in order to ensure a constant rate of introduction and removal of the capsules in each measurement to minimize the creation of static charges due to friction of the insulator elements.
Results: Several measurements with different amounts of material were carried out for each batch of each form of lurbinectedin. Before loading the capsules, they were washed and their remaining static charge was measured in order to correct the levels. Each sample was introduced and removed five times and, after each introduction, several consecutive measurements were taken in order to average any possible drift effect.
The data was fitted by lineal regression (dashed lines in FIGS. 9a and 9b) to obtain the charge density (Q/m) as the slope of the line.

[2] = Analytical results and impurity profile of batches of Form A and Form B of lurbinectedin; format: physicochemical; parameters: Impurity RRT approx. 1.10-1.11 / Impurity RRT approx. 1.12 / Impurity RRT approx. 1.27-1.34 / Impurity RRT approx. 1.29-1.30 / Impurity RRT approx. 1.30-1.32 / Impurity RRT approx. 1.28-1.37 / Impurity RRT approx. 2.37 / Impurity RRT approx. 2.41-2.52 / Impurity RRT approx. 2.85 / Impurity RRT approx. 0.66-0.69 / Impurity RRT approx. 0.72-0.76: unit not given here
Excerpt: Several batches of Form A of lurbinectedin were manufactured by this method.
Several batches of Form B of lurbinectedin were manufactured by this method.

[3] = Direct dissolution of lurbinectedin at 0.5 mg/mL in 0.03 M sodium lactate buffer pH 4; format: physicochemical; conditions: 0.5 mg/mL in 0.03 M sodium lactate buffer pH 4
Excerpt: In embodiments, the lurbinectedin to be dissolved is at least partially crystalline. The lurbinectedin to be dissolved may be in the solid state form(s) described herein.

[4] = irinotecan 125 mg/m2 (Camptosar label); n=64; mean (SD); cited from earlier work
[5] = Lurbinectedin plus irinotecan trial: pharmacokinetics of lurbinectedin, irinotecan and SN-38; conditions: combination: lurbinectedin 1.0-2.4 mg/m2 + irinotecan 75 mg/m2; n=39; mean (SD)
[6] = system: SCLC; experiment: Post-hoc exploratory analysis of response in SCLC patients who had previously received immunotherapy; format: in vivo, human; conditions: individual SCLC patients, therapy before lurbinectedin
Excerpt: Post-hoc exploratory analysis was done on the response in patients who had previously received immunotherapy (n=8).

[7] = batches of Form B of lurbinectedin, listed as 1924128-LT
[8] = impurity profile, batches of Form B, listed as 1924128-LT
[9] = batches of Form B of lurbinectedin
[10] = batches of Form B of lurbinectedin, listed as 1924129-LT
[11] = impurity profile, batches of Form B, listed as 1924129-LT
[12] = batches of Form A of lurbinectedin, listed as P04
[13] = impurity profile, batches of Form A, listed as P04
[14] = impurity profile, batches of Form B
[15] = batches of Form A of lurbinectedin, listed as R05
[16] = impurity profile, batches of Form A, listed as R05

## COc1ccc2[nH]c3c(c2c1)CCN[C@]31CS[C@@H]2c3c(OC(C)=O)c(C)c4c(c3[C@H](COC1=O)N1[C@@H]2[C@H]2c3c(cc(C)c(OC)c3O)C[C@@H]([C@@H]1O)N2C)OCO4 [Batch 1924128-LT]
[1]; listed as 1924128-LT
  Average charge density (Q/m): 4.3 ± 0.4 nC/g
  Dispersion of charge density (Q/m): 1.01 ± 0.3 nC/g
[2]; [7]
  Total Impurities: 0.4 % Area
  Water Content: 3.0 % w/w
[2]; [8]
  Impurity RRT aprox 0.66-0.69: 0.06 % area
  Impurity RRT aprox 0.72-0.76: 0.25 % area
  Impurity RRT aprox 0.90-0.92: 0.07 % area

## COc1ccc2[nH]c3c(c2c1)CCN[C@]31CS[C@@H]2c3c(OC(C)=O)c(C)c4c(c3[C@H](COC1=O)N1[C@@H]2[C@H]2c3c(cc(C)c(OC)c3O)C[C@@H]([C@@H]1O)N2C)OCO4 [Batch 1924129-LT]
[1]; listed as 1924129-LT
  Average charge density (Q/m): 4.96 ± 2.0 nC/g
  Dispersion of charge density (Q/m): 3.4 ± 1.4 nC/g
[2]; [9]
  Residual Solvents Acetonitrile: <LOQ
  Residual Solvents CH2Cl2: <LOQ
  Residual Solvents Methanol: <LOQ
  Residual Solvents Pentane: <LOQ
  Residual Solvents Total: 0.0 % w/w
[2]; [10]
  Total Impurities: 0.4 % Area
  Water Content: 4.1 % w/w
[2]; [11]
  Impurity RRT aprox 0.66-0.69: 0.07 % area
  Impurity RRT aprox 0.72-0.76: 0.24 % area
  Impurity RRT aprox 0.90-0.92: 0.08 % area

## COc1ccc2[nH]c3c(c2c1)CCN[C@]31CS[C@@H]2c3c(OC(C)=O)c(C)c4c(c3[C@H](COC1=O)N1[C@@H]2[C@H]2c3c(cc(C)c(OC)c3O)C[C@@H]([C@@H]1O)N2C)OCO4 [Batch P04]
[1]; listed as P04
  Average charge density (Q/m): 43.1 ± 3.86 nC/g
  Dispersion of charge density (Q/m): 7.6 ± 2.8 nC/g
[2]; batches of Form A of lurbinectedin
  Residual Solvents Ethyl acetate: <LOQ
[2]; [12]
  Impurities Total: 0.2 % Area
  Residual Solvents Acetonitrile: <LOQ
  Residual Solvents Dichloro-methane: <LOQ
  Residual Solvents Hexane: <LOQ
  Residual Solvents Methanol: 1.6 % w/w
  Residual Solvents Pentane: 0.5 % w/w
  Residual Solvents Total: 2.1 % w/w
  Water Content: 1.6 % w/w
[2]; [13]
  Impurity RRT approx. 0.72-0.76: 0.09
  Impurity RRT approx. 1.29-1.30: 0.10

## COc1ccc2[nH]c3c(c2c1)CCN[C@]31CS[C@@H]2c3c(OC(C)=O)c(C)c4c(c3[C@H](COC1=O)N1[C@@H]2[C@H]2c3c(cc(C)c(OC)c3O)C[C@@H]([C@@H]1O)N2C)OCO4 [Batch R02]
[2]; [9]
  Residual Solvents Acetonitrile: <LOQ
  Residual Solvents CH2Cl2: <LOQ
  Residual Solvents Pentane: <LOQ
  Residual Solvents Total: 0.0 % w/w
  Total Impurities: 0.3 % Area
  Water Content: 2.0 % w/w
[2]; [14]
  Impurity RRT aprox 0.72-0.76: 0.28 % area

## COc1ccc2[nH]c3c(c2c1)CCN[C@]31CS[C@@H]2c3c(OC(C)=O)c(C)c4c(c3[C@H](COC1=O)N1[C@@H]2[C@H]2c3c(cc(C)c(OC)c3O)C[C@@H]([C@@H]1O)N2C)OCO4 [Batch R03]
[2]; [9]
  Residual Solvents Acetonitrile: <LOQ
  Residual Solvents CH2Cl2: <LOQ
  Residual Solvents Methanol: <LOQ
  Residual Solvents Pentane: <LOQ
  Residual Solvents Total: 0.0 % w/w
  Total Impurities: 0.3 % Area
  Water Content: 1.7 % w/w
[2]; [14]
  Impurity RRT aprox 0.66-0.69: 0.05 % area
  Impurity RRT aprox 0.72-0.76: 0.22 % area

## COc1ccc2[nH]c3c(c2c1)CCN[C@]31CS[C@@H]2c3c(OC(C)=O)c(C)c4c(c3[C@H](COC1=O)N1[C@@H]2[C@H]2c3c(cc(C)c(OC)c3O)C[C@@H]([C@@H]1O)N2C)OCO4 [Batch R04]
[2]; [9]
  Residual Solvents Acetonitrile: <LOQ
  Residual Solvents CH2Cl2: <LOQ
  Residual Solvents Methanol: <LOQ
  Residual Solvents Pentane: <LOQ
  Residual Solvents Total: 0.0 % w/w
  Total Impurities: 0.4 % Area
  Water Content: 2.6 % w/w
[2]; [14]
  Impurity RRT aprox 0.66-0.69: 0.05 % area
  Impurity RRT aprox 0.72-0.76: 0.26 % area
  Impurity RRT aprox 1.10-1.11: 0.07 % area

## COc1ccc2[nH]c3c(c2c1)CCN[C@]31CS[C@@H]2c3c(OC(C)=O)c(C)c4c(c3[C@H](COC1=O)N1[C@@H]2[C@H]2c3c(cc(C)c(OC)c3O)C[C@@H]([C@@H]1O)N2C)OCO4 [Batch R05]
[1]; listed as R05
  Average charge density (Q/m): 64.02 ± 7.98 nC/g
  Dispersion of charge density (Q/m): 15.23 ± 5.64 nC/g
[2]; [15]
  Impurities Total: 0.4 % Area
  Residual Solvents Acetonitrile: <LOQ
  Residual Solvents Dichloro-methane: <LOQ
  Residual Solvents Hexane: <LOQ
  Residual Solvents Methanol: 2.2 % w/w
  Residual Solvents Pentane: 0.3 % w/w
  Residual Solvents Total: 2.5 % w/w
  Water Content: 1.1 % w/w
[2]; impurity profile, batches of Form A
  Impurity RRT approx. 2.37: 0.13
[2]; [16]
  Impurity RRT approx. 0.72-0.76: 0.10
  Impurity RRT approx. 1.10-1.11: 0.09
  Impurity RRT approx. 1.29-1.30: 0.05

## COc1ccc2[nH]c3c(c2c1)CCN[C@]31CS[C@@H]2c3c(OC(C)=O)c(C)c4c(c3[C@H](COC1=O)N1[C@@H]2[C@H]2c3c(cc(C)c(OC)c3O)C[C@@H]([C@@H]1O)N2C)OCO4 [Form A of lurbinectedin]
[3]
  Time to complete direct dissolution: approximately 30 minutes

## CCc1c2c(nc3ccc(O)cc13)-c1cc3c(c(=O)n1C2)COC(=O)[C@]3(O)CC [SN-38]
[4]
  Cmax: 26.3 (11.9) ug/L
  HL: 21.0 (20) h
[5]
  CL: 810.3 (574) L/h
  Cmax: 18.1 (7.7) ug/L
  HL: 18.6 (9.1) h
  Vz: 18232.3 (8208.4) L

## CCc1c2c(nc3ccc(OC(=O)N4CCC(N5CCCCC5)CC4)cc13)-c1cc3c(c(=O)n1C2)COC(=O)[C@]3(O)CC [irinotecan, reference compound]
[4]
  HL: 11.7 (9) h

## Nivolumab
[6]; resistant disease
  Last prior therapy: TTP: 2.2 months and 4.1 months and 2.5 months
[6]; sensitive disease
  Last prior therapy: TTP: 1.8 months and 1.4 months
